# The source made the active and inactive calls. The calls are words filed in the database; no cut-off is given here.
# Experiments:
# [1] = tested on: Pseudoperonospora cubensis; test: Fungicidal activity against Pseudoperonospora cubensis infected in cucumber cv. Sagamihanjiro seedling assessed as reduction in leaf lesion after 4 days by pot test; format: functional, organism-based
# [2] = Chemical stability of the compound in acetonitrile solution after 1 day; format: physicochemical; conditions: 24 h
# [3] = Chemical stability of the compound in THF solution after 1 day; format: physicochemical; conditions: 24 h
# [4] = Chemical stability of the compound in acetone solution after 1 day; format: physicochemical; conditions: 24 h
# [5] = tested on: Pseudoperonospora cubensis; test: Fungicidal activity against Pseudoperonospora cubensis infected cucumber cv. Sagamihanjiro seedling assessed as inhibition of zoospore liberation from zoosporangia after 4 days by microscopic analysis; format: functional, organism-based
# [6] = tested on: Pseudoperonospora cubensis; test: Fungicidal activity against Pseudoperonospora cubensis infected cucumber cv. Sagamihanjiro seedling assessed as inhibition of zoospore liberation from zoosporangia after 4 days by microscopic analysis in presence of cysteine; format: functional, organism-based
# Homo sapiens = species on record: Homo sapiens; test: Inhibition of ADH (unknown origin) at 3 ug/ml after 1 hr
# [7] = Chemical stability of the compound in ethanol solution after 1 week; format: physicochemical; conditions: 168 h
SMILES,EC50 [1],further results
Clc1ccc(/N=c2\nc(-c3ccc(Cl)cc3)n(-c3ccccc3)s2)cc1,> 400 ppm,–
Cc1ccc(/N=c2\nc(-c3ccccc3)n(C)s2)cc1,60.2 ppm,–
Cn1s/c(=N/c2ccc(Cl)cc2)nc1SCc1ccccc1,46.2 ppm,–
Clc1ccc(Nc2nc(-c3ccccc3)ns2)cc1,Not Active,–
Cn1s/c(=N/c2ccc(Cl)cc2)nc1C(Cl)(Cl)Cl,37 ppm,–
CCCc1ccc(/N=c2\nc(-c3ccc(Cl)cc3)n(C)s2)cc1,23.8 ppm,–
Cn1s/c(=N/c2ccccc2)nc1-c1ccc(Cl)cc1,23.4 ppm,–
CCCCc1ccc(/N=c2\nc(-c3ccc(Cl)cc3)n(C)s2)cc1,30.4 ppm,–
Cn1s/c(=N/c2ccc(Br)cc2)nc1-c1ccc(Cl)cc1,12 ppm,–
CCN(CC)c1n/c(=N\c2ccc(Cl)cc2)sn1C,13.1 ppm,–
COc1ccc(-c2n/c(=N\c3ccc(Cl)cc3)sn2C)cc1,132.7 ppm,–
CCn1s/c(=N/c2cc(Cl)cc(Cl)c2)nc1-c1ccc(Cl)cc1,86.7 ppm,–
Cn1s/c(=N/c2ccc(Cl)cc2)nc1-c1ccccc1,5.7 ppm,Stability [2]: Unstable; Stability [3]: Unstable; Stability [4]: Unstable; inhibition [5]: Active; inhibition [6]: inactive; inhibition (Homo sapiens): Active; Stability [7]: Stable
Cn1s/c(=N/c2ccc(Cl)cc2Cl)nc1-c1ccccc1,63.4 ppm,–
Cn1s/c(=N/c2ccc(Cl)cc2)nc1-c1cccc(Cl)c1,25.2 ppm,–
Cn1s/c(=N/c2ccc(Cl)cc2)nc1-c1ccc(Cl)cc1,7.2 ppm,–
Clc1ccc(/N=c2\nc3n(s2)CCCS3)cc1,> 400 ppm,–
Cn1s/c(=N/c2ccc(Cl)cc2)nc1Cc1ccccc1,79.1 ppm,–
CCOc1n/c(=N\c2ccc(Cl)cc2)sn1C,308.1 ppm,–
CCCn1s/c(=N/c2ccc(Cl)cc2)nc1-c1ccccc1,9.9 ppm,–
Cn1s/c(=N/c2ccc(Cl)cc2)nc1-c1ccco1,8.4 ppm,–
C/N=C(/N=c1\ssc(=S)n1-c1ccc(Cl)cc1)c1ccccc1,84.1 ppm,–
CC(C)n1s/c(=N/c2ccc(Cl)cc2)nc1-c1ccccc1,72.9 ppm,–
CCn1s/c(=N/c2cccc([N+](=O)[O-])c2)nc1-c1ccccc1,63.1 ppm,–
Cn1s/c(=N/c2ccc(Cl)cc2)nc1-c1cc(Cl)cc(Cl)c1,66.8 ppm,–
Clc1ccc(/N=c2\nc3n(s2)CCS3)cc1,68.6 ppm,–

SMILES,EC50 [1],further results
Cc1cccc(/N=c2\nc(-c3ccc(Cl)cc3)n(C)s2)c1C,25 ppm,–
CN(C)C(=O)n1s/c(=N/c2ccc(Cl)cc2)nc1-c1ccccc1,87.5 ppm,–
COc1ccc(/N=c2\nc(-c3ccc(Cl)cc3)n(C)s2)cc1,11 ppm,–
Cc1cc(C)cc(/N=c2\nc(-c3ccc(Cl)cc3)n(C)s2)c1,26.4 ppm,–
CCSc1n/c(=N\c2ccc(Cl)cc2)sn1C,36.2 ppm,–
CCn1s/c(=N/c2ccc(Cl)cc2)nc1-c1ccccc1,13.6 ppm,–
CSc1n/c(=N\c2ccc(Cl)cc2)sn1C,94.9 ppm,–
Cn1s/c(=N/c2cccc(Cl)c2Cl)nc1-c1ccc(Cl)cc1,179 ppm,–
CCOC(=O)C1CN(c2ccc(Cl)cc2)/C(=N/C(=N/C)c2ccccc2)S1 (stereo not drawn),92.8 ppm,–
CCCn1s/c(=N/c2ccc(C)cc2)nc1-c1ccccc1,141.5 ppm,–
Cc1cccc(/N=c2\nc(-c3ccc(Cl)cc3)n(C)s2)c1,26.1 ppm,–
Cn1s/c(=N/c2ccc(Nc3ccccc3)cc2)nc1-c1ccccc1,81 ppm,–
Cc1ccc(/N=c2\nc(-c3ccc(Cl)cc3)n(C)s2)cc1C,13.2 ppm,–
CCn1s/c(=N/c2ccc(Cl)cc2)nc1-c1ccc(Cl)cc1,80.4 ppm,–
Cn1s/c(=N/c2ccccc2)nc1-c1ccccc1,45.3 ppm,–
Cn1o/c(=N/c2ccc(Cl)cc2)nc1-c1ccc(Cl)cc1,> 400 ppm,–
Cn1s/c(=N/c2ccc(Cl)cc2)nc1-c1ccc(Cl)c(Cl)c1,9.5 ppm,–
Cn1s/c(=N/c2ccc(O)cc2)nc1-c1ccccc1,39.6 ppm,–
CN(C)c1ccc(/N=c2\nc(-c3ccc(Cl)cc3)n(C)s2)cc1,141.5 ppm,–
Cn1s/c(=N/c2ccc(Cl)cc2)nc1-c1ccc([N+](=O)[O-])cc1,29.7 ppm,–
CCc1ccc(/N=c2\nc(-c3ccc(Cl)cc3)n(C)s2)cc1,21.8 ppm,–
CN(C)c1n/c(=N\c2ccc(Cl)cc2)sn1C,52.5 ppm,–
Clc1ccc(/N=c2\nc(-c3ccc(Cl)cc3)n(Cc3ccccc3)s2)cc1,43.3 ppm,–
Cn1s/c(=N/c2ccc(Cl)c(Cl)c2)nc1-c1ccc(Cl)cc1,24.7 ppm,–
Cc1n/c(=N\c2ccc(Cl)cc2)sn1C,66.9 ppm,–
COc1n/c(=N\c2ccc(Cl)cc2)sn1C,> 400 ppm,–

SMILES,EC50 [1],further results
Cn1s/c(=N/c2ccc(Br)cc2)nc1-c1ccccc1,17.9 ppm,–
Cn1s/c(=N/c2ccc(I)cc2)nc1-c1ccccc1,100 ppm,–
Cn1s/c(=N/C(=O)c2ccc(Cl)cc2)nc1-c1ccc(Cl)cc1,400 ppm,–
CN(c1ccccc1)c1n/c(=N\c2ccc(Cl)cc2)sn1C,37.5 ppm,–
Cn1s/c(=N/c2cccc(Cl)c2)nc1-c1ccc(Cl)cc1,25.9 ppm,–
Cn1s/c(=N/c2ccc(Br)cc2)nc1-c1ccc(Cl)cc1Cl,131.1 ppm,–
Cc1cccc(C)c1/N=c1\nc(-c2ccccc2)n(C)s1,128.1 ppm,–
Br.Cn1s/c(=N/C2CCCCC2)nc1-c1ccccc1,> 400 ppm,–
CCn1s/c(=N/c2ccc(Br)cc2)nc1-c1ccccc1,70.2 ppm,–
C/N=C(/N=c1\snc(-c2ccccc2)n1-c1ccc(Cl)cc1)c1ccccc1,45.3 ppm,–
C/N=C(/N=c1\sn(-c2ccccc2)c(=S)n1-c1ccc(Cl)cc1)c1ccccc1,33.6 ppm,–
CCc1n/c(=N\c2ccc(Cl)cc2)sn1C,352.6 ppm,–
Cn1s/c(=N/c2ccc(-c3ccccc3)cc2)nc1-c1ccccc1,23.1 ppm,–
Cc1ccc(/N=c2\nc(-c3ccc(Cl)cc3)n(C)s2)cc1,9.2 ppm,–
Cn1s/c(=N/c2ccc(Cl)cc2)nc1-c1ccccc1Cl,11.6 ppm,–
CC1(C)Cn2s/c(=N/c3ccc(Cl)cc3)nc2S1,35.5 ppm,–
Cn1s/c(=N/c2ccc(Oc3ccc(Cl)cc3)cc2)nc1-c1ccccc1,31.9 ppm,–
Br.CC/N=c1\nc(-c2ccccc2)n(CC)s1,> 400 ppm,–
CC(C)c1n/c(=N\c2ccc(Cl)cc2)sn1C,252.7 ppm,–
Cn1s/c(=N/c2ccc(C(C)(C)C)cc2)nc1-c1ccc(Cl)cc1,14 ppm,–
Cc1ccc(-c2n/c(=N\c3ccc(Cl)cc3)sn2C)cc1,37.4 ppm,–
Cn1s/c(=N/c2ccc(F)cc2)nc1-c1ccc(Cl)cc1,22.1 ppm,–
Cn1s/c(=N/c2ccc([N+](=O)[O-])cc2)nc1-c1ccccc1,> 400 ppm,–
Cn1s/c(=N/c2ccccc2-c2ccccc2)nc1-c1ccccc1,30.4 ppm,–

# From ChEMBL document CHEMBL3045379, “Synthesis and Fungicidal Activity of 3-1, 2, 4-Thiadiazolines” (J Pestic Sci, 1992)
